Source: patent US6989377B2, “Treating vitamin D responsive diseases” (priority 1999, dated 2006)
Like-named read-outs stand apart in the source and are kept apart here.

Columns and labels:
C3H/HeJ male mice = assay: Serum calcium after calcitriol feeding, C3H/HeJ male mice; format: in vivo, mouse
Experimental: (§1) In order to determine serum calcium, blood was collected, allowed to clot, and centrifuged (5,000×g for 10 minutes) at 6° C. The serum was decanted and stored frozen at −20° C. The samples, standards, and buffer blanks (2 μL each) were aliquoted into duplicate wells of a 96-well plate. Calcium reagent working solution (0.25 mL), prepared according to the manufacturer's directions (Sigma Diagnostics, St. Louis, Mo.), was added to each well, and the absorbance at 570 nm was measured.

[1] = system: DSS-induced colitis in 129X1/SvJ male mice; assay: Treatment at the first signs of DSS-induced colitis in 129X1/SvJ mice; format: in vivo, mouse
Excerpt: The 129×1/SvJ strain is genetically similar to the 129/Ola strain and to the 129/SvPas strain, which is less susceptible to DSS-induced colitis than C3H/HeJ.

[2] = system: collagen induced arthritis in mice; conditions: calcitriol administered to mice; cited from earlier work
EAE in mice = conditions: cited from earlier work
Lyme arthritis in mice = conditions: calcitriol administered to mice; cited from earlier work
129-IL-10−/− mice = assay: Spontaneous colitis in strain 129-IL-10-deficient mice; format: in vivo, mouse
Excerpt: This example describes the spontaneous colitis that develops spontaneously in strain 129-IL-10^−/− mice with and without administration of calcitriol. It has been reported that mice made genetically deficient in IL-10 spontaneously develop chronic enterocolitis (Kuhn et al., Cell, 75:263-274, 1993) if resident enteric bacteria is present (Sellon et al., Infect. Immunity, 66:5224-5231, 1998). The effect of calcitriol on spontaneous colitis in 129-IL-10^−/− mice is examined. […] The mice were age 7 weeks when they were exposed to soiled bedding from mice housed under conventional conditions. This was done to provide the enteric bacteria for development of colitis.

129x1/SvJ male mice = assay: Serum calcium after calcitriol feeding, 129x1/SvJ male mice; format: in vivo, mouse
Experimental: as §1

[3] = system: chronic DS-induced IBD in C3H/HeJ male mice; assay: Calcitriol treatment of chronic DS-induced colitis; format: in vivo, mouse
Experimental: Fecal hemoglobin was analyzed in the mice to determine bleeding from a breached intestinal barrier. […] Co., Needham Heights, Mass.), the supernatants were decanted into fresh tubes and stored frozen at -20° C. Hemoglobin in the supernatants was analyzed by a method adapted from Saitoh et al., Digestion, 56:67-75, 1995, and Liem et al., Anal. Biochem., 98:388-393, 1979, with rat hemoglobin as standard (Sigma-Aldrich). The supernatants were diluted 1:25 in TBS. […] The reaction was stopped with 100 μL of 2 M phosphoric acid, and the absorbance at 450 nm was measured with an MRX Revelation Microplate Reader (DYNEX Technologies). […] The mice were euthanized with an i.p. injection of pentobarbital. […] The fixed tissue was embedded in paraffin, sectioned at 6 μm, stained with hematoxylin and eosin, and examined by light microscopy. Scoring was conducted by a veterinary pathologist in blinded fashion. […] Clin. Invest., 98:1010-1020, 1996. The scores were summed to provide a total colitis score for each mouse. […] The serum was decanted and stored frozen at -20° C. The samples, standards, and buffer blanks (2 μL each) were aliquoted into duplicate wells of a 96-well plate. Calcium reagent working solution (0.25 mL), prepared according to the manufacturer's directions (Sigma Diagnostics, St. Louis, Mo.), was added to each well, and the absorbance at 570 nm was measured. […] In particular, age-matched adult C3H/HeJ male mice were subjected to three DS treatment cycles treatment separated by 6-8 weeks. […] Between treatments, the mice were fed laboratory mouse chow. These treatments induced chronic IBD. Beginning 10 days after the last DS treatment was completed, the mice were divided into two groups. The groups were matched with respect to fecal Hg and weight (Table 6). Group A was fed synthetic diet and group B was fed calcitriol in synthetic diet. The experiment was terminated 21 days later.

B6×129-IL-10−/− mice = conditions: for Serum Calcium B6x129-IL-10−/− female (mg/dL): analyzed when mice lost 15% of body weight; for Serum Calcium B6x129-IL-10−/− male (mg/dL): analyzed four weeks later
Experimental: The calcitriol feeding was resumed at a lower dose (20 ng/d) at age 16 weeks. […] The calcitriol feeding was resumed at a lower dose (10 ng/d) at age 18 weeks.
Four weeks later, the serum calcium levels were measured (Table 10).

[4] = system: DS-induced colitis in C3H/HeJ male mice; assay: Calcitriol prevention of DS-induced colitis; format: in vivo, mouse; conditions: 50 ng/day in diet from day −7; 1% DS days 0 to 5; terminated day 27
[5] = 50 ng/d from day 4 of 1% DSS, terminated 21 days later
[6] = given before EAE induction or at stage 1 EAE
[7] = 50 ng/day after cycle 3, 21 days, 3 cycles of 1% DS
[8] = 50 ng/day after cycle 3, 3 cycles of 1% DS
[9] = female, dose gradually reduced, age 24 weeks
[10] = female, dose gradually reduced, terminated at age 24 weeks
[11] = male, 50 ng/d, terminated at age 19 weeks

C=C1/C(=C\C=C2/CCC[C@]3(C)[C@@H]([C@H](C)CCCC(C)(C)O)CC[C@@H]23)C[C@@H](O)C[C@@H]1O [Calcitriol, 1,25 dihydroxyvitamin D3]
Serum Calcium C3H/HeJ male (C3H/HeJ male mice; 10 ng/d for two weeks): 10.5 ± 2.1 mg/dL
Serum Calcium C3H/HeJ male (C3H/HeJ male mice; 20 ng/d for two weeks): 10.1 ± 2.7 mg/dL
Serum Calcium C3H/HeJ male (C3H/HeJ male mice; 50 ng/d for two weeks): 9.9 ± 0.6 mg/dL
Serum Calcium C3H/HeJ male (C3H/HeJ male mice; 100 ng/d for two weeks): 10.1 ± 1.8 mg/dL
Tolerability of the calcitriol doses (C3H/HeJ male mice; mouse, in vivo): well tolerated
Colon Histopathology, Distal colon ([1]; 50 ng/d from day 4 of 1% DSS): 0.6 ± 0.9
Colon Histopathology, Middle colon ([1]; 50 ng/d from day 4 of 1% DSS): 0 ± 0
Colon Histopathology, Rectum + anus ([1]; 50 ng/d from day 4 of 1% DSS): 0.2 ± 0.4
Colon histopathology, Proximal colon ([1]; 50 ng/d from day 4 of 1% DSS): 0.4 ± 0.8
Colon histopathology, Sum ([1]; 50 ng/d from day 4 of 1% DSS): 1.2 ± 1.8
Peak fecal hemoglobin ([1]; 50 ng/d from day 4 of 1% DSS, 1 cycle, terminated 21 days later): 1.3 ± 1.2 mg/g
Terminal Serum Ca [1, 5]: 9.7 ± 3.2 mg/dL
Terminal weight [1, 5]: 26.4 ± 3.3 g
Colon histopathology compared to the mock-treated and prednisolone-treated mice ([1]; three weeks later): significant reduction in colon histopathology
Disease induction for collagen induced arthritis [2]: blocked disease induction
Disease induction for EAE (EAE in mice; calcitriol administered to mice): blocked disease induction
Clonal expansion of Th1 cells producing IFN-γ and TNF-α (EAE in mice; [6]): arrested the clonal expansion of Th1 cells
Transcript accumulation for TGF-β1 and IL-4 in central nervous system and lymph nodes (EAE in mice; [6]): stimulated an increase in transcript accumulation
Disease induction for Lyme arthritis (Lyme arthritis in mice): blocked disease induction
Colon Histopathology, Distal colon (129-IL-10−/− mice; 10 ng/day): 4 ± 0
Colon histopathology, Medial colon (129-IL-10−/− mice; 10 ng/day): 4 ± 0
Colon histopathology, Proximal colon (129-IL-10−/− mice; 10 ng/day): 4 ± 0
Colon histopathology, Rectum (129-IL-10−/− mice; 10 ng/day): 4 ± 0
Colon histopathology, Sum (129-IL-10−/− mice; 10 ng/day): 16 ± 0
Peak hemoglobin in stool (129-IL-10−/− mice; 10 ng/day in synthetic diet): 0 ± 0
Terminal serum calcium (129-IL-10−/− mice; 10 ng/day in synthetic diet): 12.5 ± 1.5 mg/dL
Terminal weight (129-IL-10−/− mice; 10 ng/day in synthetic diet): 19.5 ± 1.5 g
Effect on spontaneous colitis (129-IL-10−/− mice; 129-IL-10−/− mice): did not prevent spontaneous colitis
Hypercalcemia (129-IL-10−/− mice; 129-IL-10−/− mice): developed hypercalcemia
Serum Calcium 129x1/SvJ male (129x1/SvJ male mice; 10 ng/d for two weeks): 12.4 ± 0.6 mg/dL
Serum Calcium 129x1/SvJ male (129x1/SvJ male mice; 20 ng/d for two weeks): 11.5 ± 0.1 mg/dL
Serum Calcium 129x1/SvJ male (129x1/SvJ male mice; 50 ng/d for two weeks): 11.5 ± 0.4 mg/dL
Serum Calcium 129x1/SvJ male (129x1/SvJ male mice; 100 ng/d for two weeks): 11.1 ± 1.1 mg/dL
Tolerability of the calcitriol doses (129x1/SvJ male mice; mouse, in vivo): well tolerated
Terminal serum calcium [3, 7]: 10.3 ± 1.1 mg/dL
Terminal weight [3, 7]: 35.1 ± 4.0 g
Colon Histopathology, Distal colon [3, 8]: 1 ± 1
Colon histopathology, Medial colon [3, 8]: 1 ± 1
Colon histopathology, Proximal colon [3, 8]: 2 ± 1
Colon histopathology, Rectum [3, 8]: 2 ± 1
Colon histopathology, Sum [3, 8]: 6 ± 2
Hemoglobin in Stool (DS cycle 3) ([3]; DS cycle 3, before calcitriol was started (groups matched for fecal Hg)): 9 ± 10 mg/g
Effect on severity of chronic DS-induced IBD ([3]; calcitriol in synthetic diet for 21 days): reduced the severity of chronic DS-induced IBD
Reduction in colon histopathology ([3]; treated with calcitriol for 21 days): approximately 45%
Effect on spontaneous colitis (B6×129-IL-10−/− mice; 50 ng/d, colitis severity scores vs mock-treated not significantly different): did not inhibit spontaneous colitis
Serum Calcium B6x129-IL-10−/− female (mg/dL) (B6×129-IL-10−/− mice; female, 10 ng/d): 12.5 ± 1.5 mg/dL
Serum Calcium B6x129-IL-10−/− female (mg/dL) (B6×129-IL-10−/− mice; female, 20 ng/d): 13.0 ± 3.0 mg/dL
Serum Calcium B6x129-IL-10−/− female (mg/dL) (B6×129-IL-10−/− mice; female, 50 ng/d): 12.9 ± 2.4 mg/dL
Peak fecal hemoglobin (B6×129-IL-10−/− mice; female, calcitriol from age 7 weeks, dose gradually reduced, terminated at age 24 weeks): 0 ± 0 mg/g
Colon Histopathology, Distal colon (B6×129-IL-10−/− mice; [9]): 3.3 ± 0.5
Colon Histopathology, Middle colon (B6×129-IL-10−/− mice; [9]): 3.3 ± 0.5
Colon Histopathology, Rectum + anus (B6×129-IL-10−/− mice; [9]): 2.8 ± 1.9
Colon histopathology, Proximal colon (B6×129-IL-10−/− mice; [9]): 3.9 ± 0.3
Colon histopathology, Sum (B6×129-IL-10−/− mice; [9]): 13.1 ± 2.7
Terminal Serum Ca (B6×129-IL-10−/− mice; [10]): 12.5 ± 1.5 mg/dL
Terminal weight (B6×129-IL-10−/− mice; [10]): 19.5 ± 1.5 g
Weight lost (B6×129-IL-10−/− mice; female, feeding resumed at 20 ng/d at age 16 weeks): 15%
Serum Calcium B6x129-IL-10−/− male (mg/dL) (B6×129-IL-10−/− mice; male, 10 ng/d): 15.8 ± 2.1 mg/dL
Serum Calcium B6x129-IL-10−/− male (mg/dL) (B6×129-IL-10−/− mice; male, 20 ng/d): 14.4 ± 1.0 mg/dL
Peak fecal hemoglobin (B6×129-IL-10−/− mice; male, 50 ng/d from age 7 weeks, terminated at age 19 weeks): 0 ± 0 mg/g
Colon Histopathology, Distal colon (B6×129-IL-10−/− mice; male, 50 ng/d, age 19 weeks): 3.0 ± 0.0
Colon Histopathology, Middle colon (B6×129-IL-10−/− mice; male, 50 ng/d, age 19 weeks): 1.7 ± 1.2
Colon Histopathology, Rectum + anus (B6×129-IL-10−/− mice; male, 50 ng/d, age 19 weeks): 2.7 ± 0.6
Colon histopathology, Proximal colon (B6×129-IL-10−/− mice; male, 50 ng/d, age 19 weeks): 3.7 ± 0.6
Colon histopathology, Sum (B6×129-IL-10−/− mice; male, 50 ng/d, age 19 weeks): 11.1 ± 1.0
Serum Calcium B6x129-IL-10−/− male (mg/dL) (B6×129-IL-10−/− mice; male, 50 ng/d): 16.0 ± 3.5 mg/dL
Terminal Serum Ca (B6×129-IL-10−/− mice; [11]): 15.6 ± 2.5 mg/dL
Terminal weight (B6×129-IL-10−/− mice; [11]): 19.7 ± 0.9 g
Mortality of male mice (B6×129-IL-10−/− mice; male, 100 ng/d from age 7 weeks): died abruptly at age 15 weeks
Hypercalcemia (B6×129-IL-10−/− mice; male, graded (very low) doses from age 7 weeks, four weeks): severe hypercalcemia
Terminal weight [4]: 28.0 ± 2.9 g
